Data set [1] is described as follows: Single-dose crossover bioavailability study, REP plasma levels by LC-MS/MS. The settings on record: male, albino, rabbit, po. It is filed as in vivo, rabbits.
The conditions of data set [2]: cited from earlier work.
Data set [3] in a line: In vitro dissolution studies. The settings on record: phosphate buffer pH 6.8. It counts as physicochemical.

As to `CCOc1cc(CC(=O)N[C@@H](CC(C)C)c2ccccc2N2CCCCC2)ccc1C(=O)O` [Plain REP, Repaglinide], in data set [1], the AUC(0-inf) (commonly the area under the concentration-time curve extrapolated to infinity) amounted to 95400 ± 7220 ng·h/mL; the area under the curve AUC(0-t) (in general, the area under the concentration-time curve up to a stated or last time point) amounted to 93400 ± 5610 ng·h/mL; the concentration peaked (Cmax) at 31900 ± 1620 ng/mL; the Tmax (in general, the time from dosing to the highest level) amounted to 1 ± 0.143 h. In data set [1], the half-life (usually the time in which the quantity being followed falls by half) was 1.31 ± 0.117 h and the k el is 0.000147 s⁻¹. In addition, in data set [2], the “Biopharmaceutics Classification System (BCS) class” value is given as “class II”. Also, the percentage drug released in data set [3] (optimized formulae, alginate film and plain drug, within 30 minutes) is recorded as 22.981%. Further, in data set [3] (within 10 minutes), the release rate is given as 8.166%. This compound also showed a release rate in data set [3] (within 15 minutes) of 19.65%.
